{
  "source": "ChEMBL document CHEMBL5321213",
  "about": "“Nicolaioidesin C: An Antiausterity Agent Shows Promising Antitumor Activity in a Pancreatic Cancer Xenograft Mouse Model” (J Nat Prod, 2023)",
  "key": {"MIA PaCa-2 [1]": {"system": "MIA PaCa-2", "experiment": "Antitumor activity against human MIA PaCa-2 cells xenografted in athymic BALB/c-nu mouse assessed as fold change in N-acetylneuraminic acid level in tumor at 2 mg/kg/day, ip administered five times per week for 4 weeks by LC-MS analysis", "format": "functional"}, "MIA PaCa-2 [2]": {"system": "MIA PaCa-2", "experiment": "Antitumor activity against human MIA PaCa-2 cells xenografted in athymic BALB/c-nu mouse assessed as fold change in cytidine 5'-monophosphate level in tumor at 2 mg/kg/day, ip administered five times per week for 4 weeks by LC-MS analysis", "format": "functional"}, "MIA PaCa-2 [3]": {"system": "MIA PaCa-2", "experiment": "Preferential cytotoxicity against human MIA PaCa-2 cells in nutrient-deprived medium assessed as alteration in cell morphology by measuring leakage of cell components at 5 uM measured after 24 hrs by acridine orange and ethidium bromide dual fluorescent staining based imaging analysis", "format": "functional"}, "MIA PaCa-2 [4]": {"system": "MIA PaCa-2", "experiment": "Preferential cytotoxicity against human MIA PaCa-2 cells in nutrient-deprived medium assessed as alteration in cell morphology by measuring rupture of cell membrane at 5 uM measured after 24 hrs by acridine orange and ethidium bromide dual fluorescent staining based imaging analysis", "format": "functional"}, "MIA PaCa-2 [5]": {"system": "MIA PaCa-2", "experiment": "Antitumor activity against human MIA PaCa-2 cells xenografted in athymic BALB/c-nu mouse assessed as fold change in D-glucosamine 6-phosphate level in tumor at 10 mg/kg/day, ip administered five times per week for 4 weeks by LC-MS analysis", "format": "functional"}, "MIA PaCa-2 [6]": {"system": "MIA PaCa-2", "experiment": "Antitumor activity against human MIA PaCa-2 cells xenografted in athymic BALB/c-nu mouse assessed as fold change in Gly-Leu metabolite level in tumor at 2 mg/kg/day, ip administered five times per week for 4 weeks by LC-MS analysis", "format": "functional"}, "MIA PaCa-2 [7]": {"system": "MIA PaCa-2", "experiment": "Antitumor activity against human MIA PaCa-2 cells xenografted in athymic BALB/c-nu mouse assessed as fold change in hypoxanthine level in tumor at 10 mg/kg/day, ip administered five times per week for 4 weeks by LC-MS analysis", "format": "functional"}, "MIA PaCa-2 [8]": {"system": "MIA PaCa-2", "experiment": "Antitumor activity against human MIA PaCa-2 cells xenografted in athymic BALB/c-nu mouse assessed as fold change in N-acetylneuraminicacid level in tumor at 10 mg/kg/day, ip administered five times per week for 4 weeks by LC-MS analysis", "format": "functional"}, "MIA PaCa-2 [9]": {"system": "MIA PaCa-2", "experiment": "Antitumor activity against human MIA PaCa-2 cells xenografted in athymic BALB/c-nu mouse assessed as fold change in phenyl alanine level in tumor at 2 mg/kg/day, ip administered five times per week for 4 weeks by LC-MS analysis", "format": "functional"}, "PANC-1 [10]": {"system": "PANC-1", "experiment": "Preferential cytotoxicity against human PANC-1 cells in nutrient-deprived medium assessed as alteration in cell morphology by measuring leakage of cell components at 5 uM measured after 24 hrs by acridine orange and ethidium bromide dual fluorescent staining based imaging analysis", "format": "functional"}, "MIA PaCa-2 [11]": {"system": "MIA PaCa-2", "experiment": "Antitumor activity against human MIA PaCa-2 cells xenografted in athymic BALB/c-nu mouse assessed as fold change in methionine level in tumor at 10 mg/kg/day, ip administered five times per week for 4 weeks by LC-MS analysis", "format": "functional"}, "MIA PaCa-2 [12]": {"system": "MIA PaCa-2", "experiment": "Antitumor activity against human MIA PaCa-2 cells xenografted in athymic BALB/c-nu mouse assessed as fold change in desthiobiotin level in tumor at 10 mg/kg/day, ip administered five times per week for 4 weeks by LC-MS analysis", "format": "functional"}, "MIA PaCa-2 [13]": {"system": "MIA PaCa-2", "experiment": "Antitumor activity against human MIA PaCa-2 cells xenografted in athymic BALB/c-nu mouse assessed as fold change in proline level in tumor at 2 mg/kg/day, ip administered five times per week for 4 weeks by LC-MS analysis", "format": "functional"}, "MIA PaCa-2 [14]": {"system": "MIA PaCa-2", "experiment": "Antitumor activity against human MIA PaCa-2 cells xenografted in athymic BALB/c-nu mouse assessed as fold change in biotin level in tumor at 10 mg/kg/day, ip administered five times per week for 4 weeks by LC-MS analysis", "format": "functional"}, "MIA PaCa-2 [15]": {"system": "MIA PaCa-2", "experiment": "Antimetastatic activity in human MIA PaCa-2 cells in DMEM media assessed as inhibition of colony formation at 10 uM incubated for 24 hrs followed by replacement with fresh medium and measured after 10 days by crystal violet staining-based assay relative to control", "format": "functional"}, "MIA PaCa-2 [16]": {"system": "MIA PaCa-2", "experiment": "Inhibition of Akt/mTOR signaling pathway in human MIA PaCa-2 cells in nutrient-deprived medium assessed as reduction in AKT phosphorylation at S473 residue measured after 6 hrs by Western blot analysis", "format": "cell-based", "conditions": "dose 5-20 µM"}, "MIA PaCa-2 [17]": {"system": "MIA PaCa-2", "experiment": "Antitumor activity against human MIA PaCa-2 cells xenografted in athymic BALB/c-nu mouse assessed as fold change in asparagine level in tumor at 2 mg/kg/day, ip administered five times per week for 4 weeks by LC-MS analysis", "format": "functional"}, "MIA PaCa-2 [18]": {"system": "MIA PaCa-2", "experiment": "Antitumor activity against human MIA PaCa-2 cells xenografted in athymic BALB/c-nu mouse assessed as fold change in 3-sulfolacticacid level in tumor at 10 mg/kg/day, ip administered five times per week for 4 weeks by LC-MS analysis", "format": "functional"}, "PANC-1 [19]": {"system": "PANC-1", "experiment": "Inhibition of autophagy in human PANC-1 cells in DMEM medium assessed as downregulation of LC3 protein expression at 5 to 20 uM measured after 6 hrs by Western blot analysis", "format": "functional, cell-based", "conditions": "dose 5-20 µM"}, "MIA PaCa-2 [20]": {"system": "MIA PaCa-2", "experiment": "Antitumor activity against human MIA PaCa-2 cells xenografted in athymic BALB/c-nu mouse assessed as fold change in 2,6-diaminopimelicacid level in tumor at 2 mg/kg/day, ip administered five times per week for 4 weeks by LC-MS analysis", "format": "functional"}, "[21]": {"experiment": "Toxicity in athymic BALB/c-nu mouse xenografted with human MIA PaCa-2 cells assessed as animal death at 2 to 10 mg/kg/day, ip administered five times per week for 4 weeks", "format": "organism-based", "conditions": "in vivo, 672 h, dose 2-10 mg/kg/day"}, "MIA PaCa-2 [22]": {"system": "MIA PaCa-2", "experiment": "Antitumor activity against human MIA PaCa-2 cells xenografted in athymic BALB/c-nu mouse assessed as fold change in 3-sulfolactic acid level in tumor at 2 mg/kg/day, ip administered five times per week for 4 weeks by LC-MS analysis", "format": "functional"}, "MIA PaCa-2 [23]": {"system": "MIA PaCa-2", "experiment": "Antitumor activity against human MIA PaCa-2 cells xenografted in athymic BALB/c-nu mouse assessed as fold change in 2,6-diaminopimelicacid level in tumor at 10 mg/kg/day, ip administered five times per week for 4 weeks by LC-MS analysis", "format": "functional"}, "PANC-1 [24]": {"system": "PANC-1", "experiment": "Antimetastatic activity in human PANC-1 cells in nutrient-rich medium assessed as open wound area at 20 uM measured every 15 mins for 24 hrs by live cell imaging analysis (reference value: 16%)", "format": "functional"}, "MIA PaCa-2 [25]": {"system": "MIA PaCa-2", "experiment": "Antitumor activity against human MIA PaCa-2 cells xenografted in athymic BALB/c-nu mouse assessed as fold change in benzoic acid level in tumor at 2 mg/kg/day, ip administered five times per week for 4 weeks by LC-MS analysis", "format": "functional"}, "MIA PaCa-2 [26]": {"system": "MIA PaCa-2", "experiment": "Inhibition of autophagy in human MIA PaCa-2 cells in DMEM medium assessed as downregulation of LC3 protein expression at 5 to 20 uM measured after 6 hrs by Western blot analysis", "format": "functional, cell-based", "conditions": "dose 5-20 µM"}, "MIA PaCa-2 [27]": {"system": "MIA PaCa-2", "experiment": "Antitumor activity against human MIA PaCa-2 cells xenografted in athymic BALB/c-nu mouse assessed as tumor wet weight at 2 mg/kg/day, ip administered five times per week for 4 weeks (reference value: 368 mg)", "format": "functional"}, "MIA PaCa-2 [28]": {"system": "MIA PaCa-2", "experiment": "Antitumor activity against human MIA PaCa-2 cells xenografted in athymic BALB/c-nu mouse assessed as fold change in nicotinamide level in tumor at 10 mg/kg/day, ip administered five times per week for 4 weeks by LC-MS analysis", "format": "functional"}},
  "note": "The source made the active and inactive calls. The rule behind the calls is not given here.",
  "data": [
    {"molecule": "COc1cc(O)c(C(=O)[C@@H]2CC=C(CCC=C(C)C)C[C@H]2c2ccccc2)c(O)c1", "values": [
      {"measurement": "fold change (FC)", "setting": "MIA PaCa-2 [1]", "value": 0.33},
      {"measurement": "fold change (FC)", "setting": "MIA PaCa-2 [2]", "value": 0.4},
      {"measurement": "Activity", "setting": "MIA PaCa-2 [3]", "value": "Active"},
      {"measurement": "Activity", "setting": "MIA PaCa-2 [4]", "value": "Active"},
      {"measurement": "fold change (FC)", "setting": "MIA PaCa-2 [5]", "value": 0.36},
      {"measurement": "fold change (FC)", "setting": "MIA PaCa-2 [6]", "value": 0.45},
      {"measurement": "fold change (FC)", "setting": "MIA PaCa-2 [7]", "value": 0.4},
      {"measurement": "fold change (FC)", "setting": "MIA PaCa-2 [8]", "value": 0.4},
      {"measurement": "fold change (FC)", "setting": "MIA PaCa-2 [9]", "value": 0.44},
      {"measurement": "Activity", "setting": "PANC-1 [10]", "value": "Active"},
      {"measurement": "fold change (FC)", "setting": "MIA PaCa-2 [11]", "value": 0.38},
      {"measurement": "fold change (FC)", "setting": "MIA PaCa-2 [12]", "value": 0.4},
      {"measurement": "fold change (FC)", "setting": "MIA PaCa-2 [13]", "value": 0.62},
      {"measurement": "fold change (FC)", "setting": "MIA PaCa-2 [14]", "value": 0.43},
      {"measurement": "inhibition at 10 µM", "setting": "MIA PaCa-2 [15]", "value": 88, "unit": "%"},
      {"measurement": "inhibition", "setting": "MIA PaCa-2 [16]", "value": "Dose-Dependent Effect"},
      {"measurement": "fold change (FC)", "setting": "MIA PaCa-2 [17]", "value": 0.33},
      {"measurement": "fold change (FC)", "setting": "MIA PaCa-2 [18]", "value": 0.44},
      {"measurement": "inhibition", "setting": "PANC-1 [19]", "value": "inactive"},
      {"measurement": "fold change (FC)", "setting": "MIA PaCa-2 [20]", "value": 0.53},
      {"measurement": "Activity", "setting": "[21]", "value": "Non-Toxic"},
      {"measurement": "fold change (FC)", "setting": "MIA PaCa-2 [22]", "value": 0.48},
      {"measurement": "fold change (FC)", "setting": "MIA PaCa-2 [23]", "value": 0.36},
      {"measurement": "Activity", "setting": "PANC-1 [24]", "value": 36, "unit": "%"},
      {"measurement": "fold change (FC)", "setting": "MIA PaCa-2 [25]", "value": 0.43},
      {"measurement": "inhibition", "setting": "MIA PaCa-2 [26]", "value": "inactive"},
      {"measurement": "Activity", "setting": "MIA PaCa-2 [27]", "value": 181, "unit": "mg"},
      {"measurement": "fold change (FC)", "setting": "MIA PaCa-2 [28]", "value": 0.39}
    ]}
  ]
}
